From PubChem BioAssay (NCI)
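Step 1: Grow cells in 96-well plates. Step 2: Expose to compound for 48 hours at 5 concentrations. Step 3: Interpolate endpoints linearly; if unreached, use highest concentration. TGI: total growth inhibition.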

What was measured:
Assay in all cases: DTP human tumour cell line panel, 48 h
DMS 273 small cell lung = tested on: DMS 273 small cell lung
SNB-19 CNS = tested on: SNB-19 CNS
SNB-78 CNS = tested on: SNB-78 CNS
LXFL 529 NSCLC = tested on: LXFL 529 NSCLC
NCI-H226 lung = tested on: NCI-H226 lung
OVCAR-5 ovarian = tested on: OVCAR-5 ovarian
U251 CNS = tested on: U251 CNS
HCC-2998 colon = tested on: HCC-2998 colon
KM12 colon = tested on: KM12 colon
OVCAR-4 ovarian = tested on: OVCAR-4 ovarian
RPMI-8226 leukemia = tested on: RPMI-8226 leukemia
HOP-62 NSCLC = tested on: HOP-62 NSCLC
RXF 393 renal = tested on: RXF 393 renal
HCT-116 colon = tested on: HCT-116 colon
SF-295 CNS = tested on: SF-295 CNS
HOP-18 NSCLC = tested on: HOP-18 NSCLC
786-0 renal = tested on: 786-0 renal
MALME-3M melanoma = tested on: MALME-3M melanoma
SR leukemia = tested on: SR leukemia
MOLT-4 leukemia = tested on: MOLT-4 leukemia
SK-MEL-28 melanoma = tested on: SK-MEL-28 melanoma
ACHN renal = tested on: ACHN renal
TK-10 renal = tested on: TK-10 renal
UACC-257 melanoma = tested on: UACC-257 melanoma
NCI-H23 lung = tested on: NCI-H23 lung
COLO 205 colon = tested on: COLO 205 colon
HOP-92 NSCLC = tested on: HOP-92 NSCLC
M14 melanoma = tested on: M14 melanoma
HCT-15 colon = tested on: HCT-15 colon
KM20L2 colon = tested on: KM20L2 colon
SNB-75 CNS = tested on: SNB-75 CNS
HL-60(TB) leukemia = tested on: HL-60(TB) leukemia
RXF-631 renal = tested on: RXF-631 renal
SN12C renal = tested on: SN12C renal
CAKI-1 renal = tested on: CAKI-1 renal
SK-MEL-2 melanoma = tested on: SK-MEL-2 melanoma
SW-620 colon = tested on: SW-620 colon
SK-OV-3 ovarian = tested on: SK-OV-3 ovarian
LOX IMVI melanoma = tested on: LOX IMVI melanoma
A549 NSCLC = tested on: A549 NSCLC
XF 498 CNS = tested on: XF 498 CNS
DLD-1 colon = tested on: DLD-1 colon
SF-268 CNS = tested on: SF-268 CNS
SK-MEL-5 melanoma = tested on: SK-MEL-5 melanoma
NCI-H522 lung = tested on: NCI-H522 lung
IGROV1 ovarian = tested on: IGROV1 ovarian
HT29 colon = tested on: HT29 colon
UO-31 renal = tested on: UO-31 renal
OVCAR-8 ovarian = tested on: OVCAR-8 ovarian
UACC-62 melanoma = tested on: UACC-62 melanoma
K-562 leukemia = tested on: K-562 leukemia
NCI-H460 lung = tested on: NCI-H460 lung
DMS 114 small cell lung = tested on: DMS 114 small cell lung
A498 renal = tested on: A498 renal
CCRF-CEM leukemia = tested on: CCRF-CEM leukemia

Measured: TGI

C#CCn1c(=O)[nH]c(=O)c2cccnc21
> 100 µM: DMS 273 small cell lung | SNB-19 CNS | SNB-78 CNS | LXFL 529 NSCLC | NCI-H226 lung | OVCAR-5 ovarian | U251 CNS | HCC-2998 colon | KM12 colon | OVCAR-4 ovarian | RPMI-8226 leukemia | HOP-62 NSCLC | RXF 393 renal | HCT-116 colon | SF-295 CNS | HOP-18 NSCLC | 786-0 renal | MALME-3M melanoma | SR leukemia | MOLT-4 leukemia | SK-MEL-28 melanoma | ACHN renal | TK-10 renal | UACC-257 melanoma | NCI-H23 lung | COLO 205 colon | HOP-92 NSCLC | M14 melanoma | HCT-15 colon | KM20L2 colon | SNB-75 CNS | HL-60(TB) leukemia | RXF-631 renal | SN12C renal | CAKI-1 renal | SK-MEL-2 melanoma | SW-620 colon | SK-OV-3 ovarian | LOX IMVI melanoma | A549 NSCLC | XF 498 CNS | DLD-1 colon | SF-268 CNS | SK-MEL-5 melanoma | NCI-H522 lung

CCOC(=O)NC(=O)c1cn(CCN2CCN(C(=O)CCCCCCCCCCNc3ncnc4c3ncn4C3OC(CO)C(O)C3O)CC2)c(=O)[nH]c1=O (configuration not stated)
> 100 µM: IGROV1 ovarian | SNB-19 CNS | SNB-78 CNS | LXFL 529 NSCLC | U251 CNS | HCC-2998 colon | KM12 colon | HT29 colon | HOP-62 NSCLC | HCT-116 colon | SF-295 CNS | UO-31 renal | 786-0 renal | MALME-3M melanoma | SR leukemia | MOLT-4 leukemia | SK-MEL-28 melanoma | ACHN renal | OVCAR-8 ovarian | TK-10 renal | UACC-257 melanoma | UACC-62 melanoma | NCI-H23 lung | COLO 205 colon | HOP-92 NSCLC | M14 melanoma | K-562 leukemia | HCT-15 colon | KM20L2 colon | SNB-75 CNS | HL-60(TB) leukemia | NCI-H460 lung | RXF-631 renal | DMS 114 small cell lung | SN12C renal | CAKI-1 renal | A498 renal | SK-MEL-2 melanoma | SW-620 colon | SK-OV-3 ovarian | LOX IMVI melanoma | A549 NSCLC | CCRF-CEM leukemia | XF 498 CNS | DLD-1 colon | SF-268 CNS | SK-MEL-5 melanoma
